# Reference: patent US20250134870A1, “PATHWAY MODULATOR, PHARMACEUTICAL COMPOSITION HAVING SAME, USE THEREOF, AND THERAPEUTIC METHOD USING SAME” (Jiangsu Yahong Meditech Co., Ltd., priority 2021, published 2025)
# Tests used:
# [1] = 1200 mg; 10 consecutive days; NCT02151994; cited from earlier work
# norepinephrine level = conditions: cited from earlier work
# [2] = system: mesenteric lymph node immune cell subpopulations; assay: Flow cytometry of immune cell subpopulations and cytokines in mesenteric lymph nodes of DSS colitis mice (Examples 2, 4); type: in vivo, C57BL/6J mice; conditions: 100 mg/kg PO QD × 8 days (Test group 7#) vs solvent group
# Description: The experimental endpoint was 24 hours after administration on Day 8 for the positive drug control group and the Test group 1 #to Test group 7 #of Example 1; the experimental endpoint of the normal group and the solvent group was the same as that of the positive drug control group and Test group 1 #to Test group 7 #.
# At the experimental endpoint, mesenteric lymphatic nodes were collected and treated as follows:
# 1) The mesenteric lymph nodes were gently grinded and filtered with a […] strainer (BD bioscience, Catalog No. 352350) to obtain a cell suspension, and the cells were counted.
# 2) The cells were suspended in a suspension solution (the suspension solution was prepared by the following process: diluting the cell activation mixture with a mixture of 90 v % 1640 medium and 10 v % fetal bovine serum to a concentration of 1×), the cell density was adjusted to 2.5×10^7/mL, and the cells were incubated at 37° C. for 5 hours. 3) The cells were washed with Dulbecco's Phosphate Buffered Saline, and stained with viable/dead stain (stain No. 12 in Table 5) at room temperature for 15 min to distinguish between viable cells and dead cells; the cells were washed with staining buffer (prepared by mixing fetal bovine serum and Dulbecco's Phosphate Buffered Saline at a volume ratio of 2:98), Fc block working solution (prepared by mixing Fc block and staining buffer at a volume ratio of 1:200) was added, and the cells were incubated at room temperature for 15 minutes.
# 4) The cells were surface labeled with 100 μL of antibody staining solution for flow cytometry without washing and incubated at 4° C. for 30 minutes.
# 5) The cells were washed once with staining buffer, 100 μL of cell fixative solution was added, and the cells were incubated at 4° C. overnight.
# 6) 200 μL of cell permeabilization solution was added and incubated at 4° C. for 30 minutes.
# 7) After washing with 250 μL of cell permeabilization solution, the cells were suspended with 100 μL of staining buffer and fluorescence was detected with a BD LSRFortessa instrument.
# 8) The cell subpopulations analyzed by flow cytometry included CD4+ T cell subpopulation, IL-17A+CD4+ T cell subpopulation, IFN-γ+CD4+ T cell subpopulation, TNF-α+CD4+ T cell subpopulation, CD25+FOXP3+ Treg cell subpopulation; CD8+ T cell subpopulation, IL-17A+CD8+ T cell subpopulation, IFN-γ+CD8+ T cell subpopulation, TNF-α+CD8+ T cell subpopulation; CD69+B220+ B cell subpopulation and NK1.1+CD107a+ NK cell subpopulation.
# [3] = system: dextran sulfate sodium (DSS)-induced colitis; assay: DSS-induced colitis in mice: body weight, DAI score, colon density (Examples 1, 3); type: in vivo, C57BL/6J mice; conditions: for Colon density: experimental endpoint
# Description: 8-10 week old female C57BL/6J mice purchased from Charles River Laboratories were used. The mice were housed in a room at constant temperature (20+2° C.) (5 mice per cage) with a 12-hour light-dark cycle. All protocols were approved by the Institutional Animal Care and Use Committee of WuXi AppTec. These mice were adapted to the housing conditions at the animal experiment center of WuXi AppTec for at least three days prior to the experiment. […] At the experimental endpoint (see hereinafter), mice were euthanized and endpoint samples were obtained. Mice in the normal group were not given 3% DSS aqueous solution to induce colitis and were free to drink blank water. […] The animal body weight and DAI score were assessed under double-blind conditions, that is, the researchers collected the body weight data of mice and observed and scored the stool characteristics and blood stools every day, without knowing the group and dosing regimen. The DAI score was the sum of the weight loss score, stool score and bleeding score. […] The data were analyzed by analysis of variance, specifically by using the following process: using Graph Pad Prism 6.0 software to carry out post-hoc Dunnett's multiple comparison test. […] Data were expressed as mean±S.E.M. The experimental endpoint was 24 hours after administration on Day 8 for the positive drug control group and the Test group 1 #to Test group 7 #of Example 1; the experimental endpoint of the normal group and the solvent group was the same as that of the positive drug control group and Test group 1 #to Test group 7 #.
# [4] = rats with spontaneous hypertension
smiles,measurement,setting,value
Fc1cc(F)c2c(c1)C[C@@H](n1c(CCNCc3ccccc3)c[nH]c1=S)CO2 [Zamicastat],safety,[1],relatively good safety
same,brain-blood-barrier penetration,norepinephrine level; compared with Nepicastat,lower levels of brain-blood-barrier penetration
same,effect on brain tissue (norepinephrine level),norepinephrine level; [4],no effect on brain tissue
same,norepinephrine level in peripheral sympathetic innervation tissues,norepinephrine level; [4],reduce the norepinephrine level in peripheral sympathetic innervation tissues
same,proportion of CD4+ T cell subpopulation,[2],reduce the proportion
same,proportion of CD25+FOXP3+ Treg cell subpopulation,[2],increase the proportion
same,secretion of IFN-γ by CD4+ T cell subpopulation,[2],reduce the secretion
same,secretion of IL-17A by CD4+ T cell subpopulation,[2],reduce the secretion
same,secretion of TNF-α by CD4+ T cell subpopulation,[2],reduce the secretion
same,"Body weight on Day 7, g",[3]; 10 mg/kg PO QD × 8 days,19.26 g
same,"Body weight on Day 7/initial body weight, %",[3]; 10 mg/kg PO QD × 8 days,91.68%
same,"Body weight on Day 8, g",[3]; 10 mg/kg PO QD × 8 days,18.37 g
same,"Body weight on Day 8/initial body weight, %",[3]; 10 mg/kg PO QD × 8 days,87.45%
same,DAI score on Day 8,[3]; 10 mg/kg PO QD × 8 days,6.30
same,"Body weight on Day 7, g",[3]; 30 mg/kg PO QD × 8 days,18.96 g
same,"Body weight on Day 7/initial body weight, %",[3]; 30 mg/kg PO QD × 8 days,91.04%
same,"Body weight on Day 8, g",[3]; 30 mg/kg PO QD × 8 days,17.78 g
same,"Body weight on Day 8/initial body weight, %",[3]; 30 mg/kg PO QD × 8 days,85.35%
same,DAI score on Day 8,[3]; 30 mg/kg PO QD × 8 days,6.30
same,"Body weight on Day 7, g",[3]; 100 mg/kg PO QD × 8 days,19.66 g
same,"Body weight on Day 8, g",[3]; 100 mg/kg PO QD × 8 days,18.75 g
same,"Body weight on Day 8/initial body weight, %",[3]; 100 mg/kg PO QD × 8 days,89.17%
same,DAI score on Day 8,[3]; 100 mg/kg PO QD × 8 days,5.20
same,severity of DSS-induced colitis and disease activity,"[3]; Nepicastat 30, Etamicastat 100, Zamicastat 100 mg/kg PO QD × 8 days (Test groups 1#, 4#, 7#) vs solvent group",ameliorated the severity of DSS-induced colitis and reduced disease activity
same,Colon density,[3]; 10 mg/kg PO QD × 8 days,35.04 mg/cm
same,Colon density,[3]; 30 mg/kg PO QD × 8 days,36.37 mg/cm
